Here are results for 19 molecules from patent publication US20160194358A1, “LINEAR PEPTIDE ANTIBIOTCS” (priority 2013, published 2016).

The subject of assay [1] is methicillin resistant Staphylococcus aureus (MRSA) strain USA300 (NRS384). Here is the method: (§1) In vitro antimicrobial activity of each compound was determined by measuring minimal inhibitor concentrations (MICs) using the broth micro-dilution technique as approved by the Clinical and Laboratory Standards Institute (CLSI). Antibacterial activity was measure against two strains of bacteria: 1) methicillin resistant Staphylococcus aureus (MRSA) strain USA300 (NRS384) and 2) Escherichia coli strain MC4100 IMP-4213, which harbors an LptD mutation. Bacterial inocula were prepared by scraping cells into 1 mL of testing media (cation adjusted Mueller Hinton Broth supplemented with 0.002% v/v Tween-80) and diluting to a final OD600nm of 0.01.
(§2) Test compounds were prepared in DMSO at a concentration of 10 mg/ml. These compound stocks were diluted into testing media at a concentration of 64 μg/ml and 9 serial 1:2 dilutions were made in the same media, in 96-well U bottom microtiter dishes. Bacterial inocula were added to the two fold serial dilutions of test compounds to a final density of OD OD600nm of 0.0005 and incubated stationarily at 35° C. for 22 hours, after which the plates were examined visually.

The test system of assay [2] is Escherichia coli strain MC4100 IMP-4213, which harbors an LptD mutation. The following applies: E. coli MC4100 IMP-4213; 35° C., 22 hours. Here is the method:
as §1, §2

[3] abbreviates: MRSA USA300 (NRS384), 35° C., 22 hours.

Molecules are shown by their SMILES. ≈ marks a conversion by molar mass, not a printed value. Like-named read-outs stand apart in the source and are kept apart here. *1 amine or outer side, *2 acyl side, *3 side chain or, on linkers, in order; H or OH if unused. Where a SMILES comes first, the peptide text is derived from it. [ ]: non-standard residue; d: D form. The star is where a group is joined. boroAla((+)-pinanediol) = C[C@H](N*)B1O[C@@H]2C[C@@H]3C[C@@H](C3(C)C)[C@]2(C)O1; Benzoyl(4-(4-Cl-Ph)) = O=C(c1ccc(-c2ccc(Cl)cc2)cc1)*; Ethanesulfonyl(2-NHDecyl) = CCCCCCCCCCNCCS(=O)(=O)*; Propanoyl(3-decylamino) = CCCCCCCCCCNCCC(=O)*; X18 = CCCCc1ccc(-c2ccc(S(=O)(=O)*)cn2)cc1; X27 = CCCCCCCCN1CCN([*:1])C(C(=O)[*:2])C1; X30 = CCCCc1ccc(-c2ncc(C(=O)*)cn2)cc1; AlaCOCOOMe = COC(=O)C(=O)[C@H](C)N*; X25 = C[C@H](N*)C(=O)c1ncc(C#N)o1; X29 = CCCCCCCCCCN(C)CCS(=O)(=O)*; NDecylGly = CCCCCCCCCCNCC(=O)O; X20 = CC(N*)C(=O)C(F)(F)C(=O)O; X22 = C[C@H](N*)C(=O)C(=O)O; X17 = CCCCCCCCCNCCCC(=O)*; boroAla = C[C@H](N*)B(O)O; Octanoyl = CCCCCCCC(=O)*; Dab = NCC[C@H](N)C(=O)O; Dap = NC[C@H](N)C(=O)O

For the molecule `CCCCCCCCCCN(C)CCS(=O)(=O)N[C@@H](CCCCN)C(=O)N[C@H](C(=O)N[C@@H](C)C(=O)N[C@@H](CCCCN)C(=O)N[C@@H](C)B1O[C@@H]2C[C@@H]3C[C@@H](C3(C)C)[C@]2(C)O1)[C@@H](C)O` [Compound 245] (X29-KTAK-{boroAla((+)-pinanediol)}), the “MIC (μg/mL) S. aureus” value in assay [1] (setting [3]) worked out at 0.35 µg/mL (≈ 0.383 µM). Further, the “MIC (μg/mL) E. coli” value in assay [2] was found to be 32 µg/mL (≈ 35 µM).
The matching figures for `CCCCc1ccc(-c2ccc(S(=O)(=O)N[C@@H](CCN)C(=O)N[C@H](C(=O)N[C@@H](C)C(=O)N[C@@H](CCCCN)C(=O)N[C@@H](C)B3O[C@@H]4C[C@@H]5C[C@@H](C5(C)C)[C@]4(C)O3)[C@@H](C)O)cn2)cc1` [Compound 232] (X18-[Dab]TAK-{boroAla((+)-pinanediol)}): 1.5 µg/mL (≈ 1.67 µM) and 11 µg/mL (≈ 12.3 µM).
Regarding `CCCCCCCCCCNCCC(=O)N[C@@H](CCCCN)C(=O)N[C@H](C(=O)N[C@@H](C)C(=O)N[C@@H](CCCCN)C(=O)N[C@@H](C)C(=O)C(=O)OC)[C@@H](C)O` [Compound 248] ({Propanoyl(3-decylamino)}-KTAK-AlaCOCOOMe), the “MIC (μg/mL) S. aureus” value in assay [1] (USA300, 22 h) was 1 µg/mL (≈ 1.3 µM). Moreover, the “MIC (μg/mL) E. coli” value in assay [2] was greater than 64 µg/mL.
Take `CCCCCCCC(=O)N[C@@H](CN)C(=O)N[C@H](C(=O)N[C@@H](C)C(=O)N[C@@H](CCCCN)C(=O)N[C@@H](C)B1O[C@@H]2C[C@@H]3C[C@@H](C3(C)C)[C@]2(C)O1)[C@@H](C)O` [Compound 260] (Octanoyl-[Dap]TAK-{boroAla((+)-pinanediol)}): the “MIC (μg/mL) S. aureus” value in assay [1] (setting [3]) is 23 µg/mL (≈ 31.3 µM). Besides, the “MIC (μg/mL) E. coli” value in assay [2] came to 32 µg/mL (≈ 43.5 µM).
As for `CCCCCCCCCNCCCC(=O)N[C@@H](CCCCN)C(=O)N[C@H](C(=O)N[C@@H](C)C(=O)N[C@@H](CCCCN)C(=O)N[C@@H](C)B(O)O)[C@@H](C)O` [Compound 228] (X17-KTAK-boroAla), the “MIC (μg/mL) S. aureus” value in assay [1] (USA300, 22 h) was 2 µg/mL (≈ 2.74 µM). The “MIC (μg/mL) E. coli” value in assay [2] is greater than 64 µg/mL.
Consider `C[C@H](NC(=O)[C@H](CCCCN)NC(=O)[C@H](C)NC(=O)[C@@H](NC(=O)C(NC(=O)c1ccc(-c2ccc(Cl)cc2)cc1)C1CNC1)[C@@H](C)O)B1O[C@@H]2C[C@@H]3C[C@@H](C3(C)C)[C@]2(C)O1` (some centres unmarked) [Compound 281], for which, in assay [1] (setting [3]), the “MIC (μg/mL) S. aureus” value came to 4 µg/mL (≈ 4.7 µM). Also, the “MIC (μg/mL) E. coli” value in assay [2] turned out to be 8 µg/mL (≈ 9.41 µM).
For `CCCCCCCCN1CCNC(C(=O)N[C@@H](CCCCN)C(=O)N[C@H](C(=O)N[C@@H](C)C(=O)N[C@@H](CCCCN)C(=O)N[C@@H](C)B2O[C@@H]3C[C@@H]4C[C@@H](C4(C)C)[C@]3(C)O2)[C@@H](C)O)C1` (stereo partly drawn) [Compound 279] (H-[X27]KTAK-{boroAla((+)-pinanediol)}), the “MIC (μg/mL) S. aureus” value in assay [1] (setting [3]) is 10 µg/mL (≈ 11.4 µM). Moreover, the “MIC (μg/mL) E. coli” value in assay [2] is greater than 64 µg/mL.
For the molecule `CCCCCCCCCCNCCC(=O)N[C@@H](CN)C(=O)N[C@H](C(=O)N[C@@H](C)C(=O)N[C@@H](CCCCN)C(=O)N[C@@H](C)B(O)O)[C@@H](C)O` [Compound 220] ({Propanoyl(3-decylamino)}-[Dap]TAK-boroAla), the “MIC (μg/mL) S. aureus” value in assay [1] (USA300, 22 h) is 1 µg/mL (≈ 1.46 µM). For the same molecule, the “MIC (μg/mL) E. coli” value in assay [2] was 16 µg/mL (≈ 23.3 µM).
As for `CCCCc1ccc(-c2ccc(S(=O)(=O)N[C@@H](CCN)C(=O)N[C@H](C(=O)N[C@@H](C)C(=O)N[C@@H](CCCCN)C(=O)N[C@@H](C)B(O)O)[C@@H](C)O)cn2)cc1` [Compound 233] (X18-[Dab]TAK-boroAla), in assay [1] (setting [3]), the “MIC (μg/mL) S. aureus” value was 2 µg/mL (≈ 2.62 µM). For the same molecule, the “MIC (μg/mL) E. coli” value in assay [2] is 8 µg/mL (≈ 10.5 µM).
For `CCCCCCCCCCNCCS(=O)(=O)N[C@@H](CCN)C(=O)N[C@H](C(=O)N[C@@H](C)C(=O)N[C@@H](CCCCN)C(=O)N[C@@H](C)C(=O)C(=O)OC)[C@@H](C)O` [Compound 252] ({Ethanesulfonyl(2-NHDecyl)}-[Dab]TAK-AlaCOCOOMe), the “MIC (μg/mL) S. aureus” value in assay [1] (USA300, 22 h) was 1 µg/mL (≈ 1.28 µM). Also, the “MIC (μg/mL) E. coli” value in assay [2] is 64 µg/mL (≈ 82.2 µM).
Regarding `CCCCCCCCCCNC[C@@H](N)C(=O)N[C@H](C(=O)N[C@@H](C)C(=O)N[C@@H](CCCCN)C(=O)N[C@@H](C)B1O[C@@H]2C[C@@H]3C[C@@H](C3(C)C)[C@]2(C)O1)[C@@H](C)O` [Compound 241], the “MIC (μg/mL) S. aureus” value in assay [1] (setting [3]) was 1 µg/mL (≈ 1.33 µM). In addition, in assay [2], the “MIC (μg/mL) E. coli” value is 32 µg/mL (≈ 42.7 µM).
The matching figures for `C[C@H](NC(=O)[C@@H](NC(=O)[C@H](CN)NC(=O)c1ccc(-c2ccc(Cl)cc2)cc1)[C@@H](C)O)C(=O)N[C@@H](CCCCN)C(=O)N[C@@H](C)C(=O)c1ncc(C#N)o1` [Compound 266] ({Benzoyl(4-(4-Cl-Ph))}-[Dap]TAK-X25): 23 µg/mL (≈ 30 µM) and 16 µg/mL (≈ 20.9 µM).
The matching figures for `CCCCCCCCCCNCC(=O)N[C@@H](CCCCN)C(=O)N[C@H](C(=O)N[C@@H](C)C(=O)N[C@@H](CCCCN)C(=O)N[C@@H](C)B1O[C@@H]2C[C@@H]3C[C@@H](C3(C)C)[C@]2(C)O1)[C@@H](C)O` [Compound 230] (H-[NDecylGly]KTAK-{boroAla((+)-pinanediol)}): 0.36 µg/mL (≈ 0.424 µM) and 32 µg/mL (≈ 37.7 µM).
`CCCCCCCCCCNCCS(=O)(=O)N[C@@H](CCN)C(=O)N[C@H](C(=O)N[C@@H](C)C(=O)N[C@@H](CCCCN)C(=O)N[C@@H](C)C(=O)C(=O)O)[C@@H](C)O` [Compound 253] ({Ethanesulfonyl(2-NHDecyl)}-[Dab]TAK-X22): the “MIC (μg/mL) S. aureus” value in assay [1] (USA300, 22 h) was determined as 1 µg/mL (≈ 1.31 µM). Moreover, the “MIC (μg/mL) E. coli” value in assay [2] was determined as 64 µg/mL (≈ 83.7 µM).
As to `CCCCc1ccc(-c2ncc(C(=O)N[C@@H](CCN)C(=O)N[C@@H](CCCCN)C(=O)N[C@@H](C)C(=O)N[C@@H](CCCCN)C(=O)N[C@@H](C)B3O[C@@H]4C[C@@H]5C[C@@H](C5(C)C)[C@]4(C)O3)cn2)cc1` [Compound 271] (X30-[Dab]KAK-{boroAla((+)-pinanediol)}), in assay [1] (setting [3]), the “MIC (μg/mL) S. aureus” value stood at 0.25 µg/mL (≈ 0.281 µM). The “MIC (μg/mL) E. coli” value in assay [2] was found to be 0.13 µg/mL (≈ 0.146 µM).
Consider `CCCCCCCCCCNCCS(=O)(=O)N[C@@H](CCCCN)C(=O)N[C@H](C(=O)N[C@@H](C)C(=O)N[C@@H](CCCCN)C(=O)N[C@@H](C)C(=O)C(=O)OC)[C@@H](C)O` [Compound 250] ({Ethanesulfonyl(2-NHDecyl)}-KTAK-AlaCOCOOMe), for which the “MIC (μg/mL) S. aureus” value in assay [1] (USA300, 22 h) is 0.5 µg/mL (≈ 0.62 µM). Also, in assay [2], the “MIC (μg/mL) E. coli” value was greater than 64 µg/mL.
In the same order, the values of `CCCCCCCCCCNCCC(=O)N[C@@H](CCCCN)C(=O)N[C@@H](C)C(=O)N[C@@H](CCCCN)C(=O)N[C@@H](C)B1O[C@@H]2C[C@@H]3C[C@@H](C3(C)C)[C@]2(C)O1` [Compound 268] are 0.5 µg/mL (≈ 0.656 µM) and 8 µg/mL (≈ 10.5 µM).
Take `CC(NC(=O)[C@H](CCCCN)NC(=O)[C@H](C)NC(=O)[C@@H](NC(=O)[C@H](CCN)NC(=O)c1ccc(-c2ccc(Cl)cc2)cc1)[C@@H](C)O)C(=O)C(F)(F)C(=O)O` (some centres unmarked) [Compound 215] ({Benzoyl(4-(4-Cl-Ph))}-[Dab]TAK-X20): the “MIC (μg/mL) S. aureus” value in assay [1] (USA300, 22 h) came out at 6.7 µg/mL (≈ 8.57 µM). Moreover, in assay [2], the “MIC (μg/mL) E. coli” value came out at 64 µg/mL (≈ 81.8 µM).
On to `CCCCCCCCCCNCCN[C@@H](CO)C(=O)N[C@H](C(=O)N[C@@H](C)C(=O)N[C@@H](CCCCN)C(=O)N[C@@H](C)B1O[C@@H]2C[C@@H]3C[C@@H](C3(C)C)[C@]2(C)O1)[C@@H](C)O` [Compound 242], for which the “MIC (μg/mL) S. aureus” value in assay [1] (setting [3]) was found to be 4 µg/mL (≈ 5.04 µM). In addition, the “MIC (μg/mL) E. coli” value in assay [2] came out at 64 µg/mL (≈ 80.6 µM).
